Patent US10800755B2, “2,6-disubstituted pyridine derivative” (Sumitomo Dainippon Pharma Co., Ltd., priority 2017, dated 2020)

Legend:
human D4 receptor = human D4 receptor (Homo sapiens (Human), UniProt P21917); experiment: Test 2: binding activity to human D4 receptor ([3H] dopamine, CHO cell membrane); conditions: [3H] dopamine; read-out: D4 binding affinity (Ki value)
[1] = Test 3-2: metabolic stability test of human liver microsome (0.5 or 1.0 mg/mL); format: in vitro ADME; conditions: test compound 0.1 μmol/L, 37° C., 30 minutes
Protocol: Test 3-2: Metabolic Stability Test of Human Liver Microsome
In order to evaluate the metabolic stability of human liver microsomes more precisely, the stability of the present compounds for human liver microsome metabolism was evaluated with a suitable concentration of human liver microsome, as mentioned below. The used human liver microsome was obtained from Xenontech. Human liver microsome, NADPH, and each test compound were mixed in 25 mmol/L phosphate buffer solution (pH 7.4) to adjust each concentration as shown below, and the mixture was incubated at 37° C. for 30 minutes. • human liver microsome: 0.5 or 1.0 mg/mL • NAPDH: 3.2 mmol/L • test compound: 0.1 μmol/L
The residual ratio of the test compound in each sample after the incubation for 30 minutes was measured with a LC-MS, and the metabolic stability of human liver microsome was calculated about each test compound with the following formula. Metabolic stability of human liver microsome (mL/min/mg protein)=−LN (residual ratio)/“reaction time”/“concentration of human liver microsome”

[2] = Test 4-2: predictive test of human half-life (monkey distribution volume, serum unbound fraction, Test 3-2 stability); conditions: in vivo, predicted using Test 3-2 metabolic stability
Protocol: Test 4-2: Predictive Test of Human Half-Life
0.01 mol/L of the present compound in aqueous hydrochloric acid solution was parenterally administered to cynomolgus monkey. 5 minutes, 15 minutes, 30 minutes, 1 hour, 2 hours, 4 hours, 6 hours, and 24 hours after the administration, the blood was collected. The plasma was obtained from the collected blood, the drug concentration in the plasma was measured with a LC-MS, and the monkey distribution volume was calculated from the transition of the concentrations. The unbound fraction rate of the present compound in serum of human and monkey was measured by equilibrium dialysis method.
Using the monkey distribution volume, the unbound fraction rate in serum of human and monkey, and the result of the metabolic stability of human liver microsome which was obtained in Test 3-2, the half-life in human was calculated according to the formula below. “Human distribution volume”=“monkey distribution volume”×“unbound fraction rate in serum of human”/“unbound fraction rate in serum of monkey” “Human hepatic clearance”=(“human hepatic blood flow”×“unbound fraction rate in serum of human”×56.7×“metabolic stability of human liver microsome”)/(“human hepatic blood flow”+“unbound fraction rate in serum of human”×56.7×“metabolic stability of human liver microsome”) “Half-life in human”=0.693×“human distribution volume”/“human hepatic clearance”

hERG channel = hERG channel (Homo sapiens (Human), UniProt Q12809); experiment: Test 5-1: activity for inhibiting hERG channel (whole-cell patch clamp, hERG-CHO cell, Qpatch); format: cell-based; conditions: read-out: hERG inhibition IC50
hERG channel, sequence (Q12809 whole entry): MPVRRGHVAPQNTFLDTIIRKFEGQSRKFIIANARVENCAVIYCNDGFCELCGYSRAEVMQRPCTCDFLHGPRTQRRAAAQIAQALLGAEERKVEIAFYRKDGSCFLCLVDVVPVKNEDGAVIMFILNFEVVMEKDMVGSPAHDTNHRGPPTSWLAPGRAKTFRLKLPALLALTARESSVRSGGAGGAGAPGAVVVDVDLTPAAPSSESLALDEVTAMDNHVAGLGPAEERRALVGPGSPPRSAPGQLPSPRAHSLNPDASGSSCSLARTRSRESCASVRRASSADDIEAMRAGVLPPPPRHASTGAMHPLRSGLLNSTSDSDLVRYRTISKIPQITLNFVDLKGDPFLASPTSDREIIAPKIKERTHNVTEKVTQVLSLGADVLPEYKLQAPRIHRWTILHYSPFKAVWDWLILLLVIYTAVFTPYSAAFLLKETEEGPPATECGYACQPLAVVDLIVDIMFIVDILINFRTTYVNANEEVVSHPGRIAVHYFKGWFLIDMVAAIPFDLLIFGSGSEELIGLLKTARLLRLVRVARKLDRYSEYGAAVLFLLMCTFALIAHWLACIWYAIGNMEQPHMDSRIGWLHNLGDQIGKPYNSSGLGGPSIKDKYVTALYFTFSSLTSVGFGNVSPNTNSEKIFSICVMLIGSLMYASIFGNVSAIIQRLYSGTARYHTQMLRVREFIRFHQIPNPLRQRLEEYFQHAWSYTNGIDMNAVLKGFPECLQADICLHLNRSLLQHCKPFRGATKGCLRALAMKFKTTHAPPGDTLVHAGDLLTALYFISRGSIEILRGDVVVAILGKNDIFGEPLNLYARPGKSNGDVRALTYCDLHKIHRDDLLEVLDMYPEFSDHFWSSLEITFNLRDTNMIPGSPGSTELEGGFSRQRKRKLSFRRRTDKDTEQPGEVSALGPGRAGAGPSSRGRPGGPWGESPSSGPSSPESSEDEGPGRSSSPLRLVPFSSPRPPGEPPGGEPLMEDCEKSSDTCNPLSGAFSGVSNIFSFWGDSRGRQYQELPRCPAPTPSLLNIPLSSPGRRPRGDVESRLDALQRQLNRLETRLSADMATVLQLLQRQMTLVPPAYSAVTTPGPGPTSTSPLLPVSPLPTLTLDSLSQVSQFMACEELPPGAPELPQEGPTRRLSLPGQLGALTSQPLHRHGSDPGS
Protocol: Test 5-1: Evaluation of Activity for Inhibiting hERG Channel
The activity of the present compound for inhibiting hERG channel was measured by whole-cell patch clamp method with auto patch clamp system, using CHO cell wherein hERG channel involved in human rapidly activating delayed rectifier potassium current (IKr) was forcibly expressed.
hERG-CHO cell purchased from ChanTest was incubated at 37° C. in a CO2 incubator, and the cell was exfoliated from the flask with trypsin to prepare a cell suspension, shortly before the hERG current measurement.
Extracellular fluid: 2 mmol/L CaCl2, 1 mmol/L MgCl2, 10 mmol/L HEPES, 4 mmol/L KCl, 145 mmol/L NaCl, 10 mmol/L glucose
Intracellular fluid: 5.4 mmol/L CaCl2, 1.8 mmol/L MgCl2, 10 mmol/L HEPES, 31 mmol/L KOH, 10 mmol/L EGTA, 120 mmol/L KCl, 4 mmol/L Na2-ATP
Test compound solution: The test compound was dissolved in DMSO by adjusting the concentration to 2 mmol/L or 20 mmol/L to prepare each test compound solution. […] (Measurement of Current Value and Data Analysis)
The cell suspension, the extracellular fluid, the intracellular fluid, and the measurement plate were set in an auto patch clamp system, and the hERG current was measured by whole-cell patch clamp method. […] Each pulse interval was 15 seconds. The data analysis was carried out with Qpatch Assay Software (Biolin Scientific). The test was carried out applying increscently 4 concentrations of each test compound, and the average of the peak tail currents that were obtained by the last 3 stimulations in each applied concentration was determined to be the evaluated data. By using the current inhibition rate for the pre-applied current at each concentration of each test compound, IC50 value was calculated by Hill equation with the software.

SD male rat = experiment: Test 6: contextual fear conditioning test; format: in vivo; conditions: 15 mg/kg administration
Protocol: Test 6: Contextual Fear Conditioning Test
The antianxiety of the present compounds was evaluated in a manner mentioned below.
The evaluation of an 8-week-old SD male rat with a fear conditioning test system (O'HARA & CO., LTD.) was carried out in 2-day test schedule. On the 1st day of the test, by giving 0.5 mA of electric shock to the rat as unconditioned stimulus 5 times for 6 minutes, the rat was made to learn the relationship the context (the illuminance in the cage: 200 lx) which was given as conditioned stimulus, and phobic stimulus. On the 2nd day, the present compound was subcutaneously administered with saline solution to the rat, or orally administered with methylcellulose suspension to the rat. 0.5 or 1 hour after the administration, the rat was made to softly enter the cage under the condition in which the unconditioned stimulus was not given in the context. The time of cataleptic freezing reaction that the rat took for 5-minute freely-moving period and its ratio were measured. The ratios of cataleptic freezing reaction between the solvent-administration group and the present compound-administration group were compared to be statistically processed.

human D4 receptor, sequence (P21917 whole entry): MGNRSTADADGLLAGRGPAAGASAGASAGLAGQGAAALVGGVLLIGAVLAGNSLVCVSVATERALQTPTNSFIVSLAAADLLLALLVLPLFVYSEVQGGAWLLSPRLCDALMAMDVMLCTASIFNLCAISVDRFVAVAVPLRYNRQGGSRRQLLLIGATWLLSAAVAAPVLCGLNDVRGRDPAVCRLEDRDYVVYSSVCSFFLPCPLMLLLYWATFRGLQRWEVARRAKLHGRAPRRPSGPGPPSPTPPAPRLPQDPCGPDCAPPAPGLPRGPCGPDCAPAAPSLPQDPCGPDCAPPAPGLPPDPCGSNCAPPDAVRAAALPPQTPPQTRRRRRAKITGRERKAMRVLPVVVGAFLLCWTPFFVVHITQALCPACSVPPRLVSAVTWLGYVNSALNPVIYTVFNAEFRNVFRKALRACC

O=C(NCCN1CCC(c2cccc(C(F)(F)F)n2)CC1)C1CCC(F)(F)CC1 [Example 1, 4,4-Difluoro-N-(2-{4-[6-(trifluoromethyl)pyridin-2-yl]piperidin-1-yl}ethyl)cyclohexane-carboxamide]
Ki (human D4 receptor): 11 nM
Metabolic stability of human liver microsome [1]: 0.031 mL/min/mg protein
half-life [2]: 24 h
IC50 (hERG channel): 2500 nM
decrease of the cataleptic freezing reaction for the solvent-administration group (SD male rat): 82.5%
